Measurements taken from patent US20170367338A1, “COMPOSITIONS AND METHODS FOR IMPROVING AGRONOMIC CHARACTERISTICS OF PLANTS” (MONSANTO TECHNOLOGY LLC, priority 2014, published 2017).
Converted amounts (≈) assume the structure as drawn. Where two headings read alike, the source gives them in different places.

Tested on: C. elegans
Test: Three day C. elegans well assay
Format: in vivo
Details: for EC50: Caenorhabditis elegans
Method: Various compounds were tested for nematicidal activity against C. elegans using contact assays in wells. The assays were performed as described below. The test compounds were solubilized in DMSO at 10 mg/ml to create 100× stock solutions. A dilution series was created by diluting the stock solution with DMSO. For each well assay 4 ul of the appropriate dilution is added to a well of a test plate. A 400 ul aliquot of bacterial stock (in M9 buffer with ampicillin and nystatin) are added to each well of the test plate. Worms are added and the test plate placed on a rotary shaker and held at 20° C. Worms are examined and scored at 4 hrs, 24 hrs, 48 hrs and 72 hours. L1 worms and L4 worms were used in the assay. L1 worms are prepared by plating eggs on a plate without a bacterial feeding layer. The eggs hatch and arrest at the L1 stage. This L1 stage population is then used to create a stock for the experiments. To create an L4 stage stock a small number of worms are taken from an overgrown and starved plate of worms and seeded on a plate with a bacterial feeder layer. A 25 ul aliquot of worms is added to each well in the assay.

[1] = 24 h, L1 larvae, one day of exposure, read-out: EC50 L1 1D
[2] = 48 h, L1 larvae, two days of exposure, read-out: EC50 L1 2D
[3] = 72 h, L1 larvae, three days of exposure, read-out: EC50 L1 3D
[4] = 72 h, L4 larvae, three days, effects on the second generation larvae, read-out: EC50 L4 3D (F1)
[5] = 48 h, L4 larvae, two days of exposure, read-out: EC50 L4 2D
[6] = L4 larvae, two days of exposure
[7] = 24 h, L4 larvae, one day of exposure, read-out: EC50 L4 1D

Row | SMILES | EC50 [1] [µg/mL] | EC50 [2] [µg/mL] | EC50 [3] [µg/mL] | EC50 [4] [µg/mL] | EC50 L4 1D (L4 larvae, one day of exposure) | EC50 [5] [µg/mL] | EC50 L4 2D [6] | EC50 [7] [µg/mL] | EC50 L4 3D (L4 larvae, three days of exposure) | EC50 L1 1D (L1 larvae, one day of exposure)
1 | Clc1cc(-c2noc(-c3cccs3)n2)ccc1Br [compound 5820] | 0.4 (≈ 1.17 µM) | 0.4 (≈ 1.17 µM) | 0.4 (≈ 1.17 µM) | 6.3 (≈ 18.4 µM) | no | – | – | – | – | –
2 | Clc1cc(-c2noc(-c3ccco3)n2)ccc1Br [compound 5821] | 0.4 (≈ 1.23 µM) | 0.4 (≈ 1.23 µM) | 0.4 (≈ 1.23 µM) | 0.4 (≈ 1.23 µM) | no | – | – | – | – | –
3 | Cc1cc(Cl)ccc1-c1noc(-c2cccs2)n1 [compound 5822] | 1.6 (≈ 5.78 µM) | 0.4 (≈ 1.45 µM) | 0.4 (≈ 1.45 µM) | 1.6 (≈ 5.78 µM) | no | 1.6 (≈ 5.78 µM) | – | – | – | –
4 | Cc1cc(Br)ccc1-c1noc(-c2cccs2)n1 [compound 5824] | 1.6 (≈ 4.98 µM) | 0.4 (≈ 1.25 µM) | 0.4 (≈ 1.25 µM) | 1.6 (≈ 4.98 µM) | no | – | no | – | – | –
5 | Clc1ccccc1-c1cnc(-c2cccs2)o1 [compound 5826] | 6.3 (≈ 24.1 µM) | 1.6 (≈ 6.11 µM) | 1.6 (≈ 6.11 µM) | 6.3 (≈ 24.1 µM) | – | 6.3 (≈ 24.1 µM) | – | 6.3 (≈ 24.1 µM) | – | –
6 | Brc1ccccc1-c1cnc(-c2cccs2)o1 [compound 5827] | 6.3 (≈ 20.6 µM) | 1.6 (≈ 5.23 µM) | 1.6 (≈ 5.23 µM) | 6.3 (≈ 20.6 µM) | – | 6.3 (≈ 20.6 µM) | – | 25 (≈ 81.7 µM) | – | –
7 | Clc1ccccc1-c1cnc(-c2ccco2)o1 [compound 5828] | 1.6 (≈ 6.51 µM) | 1.6 (≈ 6.51 µM) | 1.6 (≈ 6.51 µM) | – | no | – | no | – | no | –
8 | Cc1cc(F)ccc1-c1noc(-c2cccs2)n1 [compound 5845] | – | 1.6 (≈ 6.15 µM) | 0.4 (≈ 1.54 µM) | 25 (≈ 96 µM) | no | 25 (≈ 96 µM) | – | – | – | no
9 | Cc1cc(F)ccc1-c1noc(-c2ccco2)n1 [compound 5846] | 1.6 (≈ 6.55 µM) | 0.4 (≈ 1.64 µM) | 0.4 (≈ 1.64 µM) | 1.6 (≈ 6.55 µM) | – | 1.6 (≈ 6.55 µM) | – | 1.6 (≈ 6.55 µM) | – | –
10 | Fc1cc(Br)ccc1-c1noc(-c2cccs2)n1 [compound 5848] | 1.6 (≈ 4.92 µM) | 0.4 (≈ 1.23 µM) | 0.4 (≈ 1.23 µM) | 1.6 (≈ 4.92 µM) | – | 1.6 (≈ 4.92 µM) | – | 1.6 (≈ 4.92 µM) | – | –
11 | Fc1ccc(-c2noc(-c3ccco3)n2)c(F)c1 [compound 5849] | 6.3 (≈ 25.4 µM) | 0.4 (≈ 1.61 µM) | 1.6 (≈ 6.45 µM) | 6.3 (≈ 25.4 µM) | no | – | – | – | – | –
12 | Fc1cc(Br)ccc1-c1noc(-c2ccco2)n1 [compound 5850] | 1.6 (≈ 5.18 µM) | 0.4 (≈ 1.29 µM) | 0.4 (≈ 1.29 µM) | 1.6 (≈ 5.18 µM) | – | 1.6 (≈ 5.18 µM) | – | 1.6 (≈ 5.18 µM) | – | –
13 | Fc1cc(Cl)ccc1-c1noc(-c2cccs2)n1 [compound 5860] | 1.6 (≈ 5.7 µM) | 0.4 (≈ 1.42 µM) | 0.4 (≈ 1.42 µM) | 1.6 (≈ 5.7 µM) | – | 1.6 (≈ 5.7 µM) | – | 1.6 (≈ 5.7 µM) | – | –
14 | Fc1cc(Cl)ccc1-c1noc(-c2ccco2)n1 [compound 5861] | 0.4 (≈ 1.51 µM) | 0.4 (≈ 1.51 µM) | 0.4 (≈ 1.51 µM) | 1.6 (≈ 6.05 µM) | – | 1.6 (≈ 6.05 µM) | – | 1.6 (≈ 6.05 µM) | – | –
15 | Clc1ccc(-c2nsc(-c3cccs3)n2)cc1 [compound 5905] | 0.4 (≈ 1.43 µM) | 0.4 (≈ 1.43 µM) | 0.4 (≈ 1.43 µM) | – | – | – | – | – | – | –
16 | Clc1ccc(-c2nsc(-c3ccco3)n2)cc1 [compound 5906] | 0.4 (≈ 1.52 µM) | 0.4 (≈ 1.52 µM) | 0.4 (≈ 1.52 µM) | – | – | – | – | – | – | –
